# Source: patent US12084472B2 (Ardelyx, Inc., priority 2015, dated 2024)
# Molecular target: T1, human TGR5 (Homo sapiens, UniProt Q8TDU6)
# T1 construct: expressed in transfected cells; host or cells: HEK293
# T1 sequence (Q8TDU6 1-330): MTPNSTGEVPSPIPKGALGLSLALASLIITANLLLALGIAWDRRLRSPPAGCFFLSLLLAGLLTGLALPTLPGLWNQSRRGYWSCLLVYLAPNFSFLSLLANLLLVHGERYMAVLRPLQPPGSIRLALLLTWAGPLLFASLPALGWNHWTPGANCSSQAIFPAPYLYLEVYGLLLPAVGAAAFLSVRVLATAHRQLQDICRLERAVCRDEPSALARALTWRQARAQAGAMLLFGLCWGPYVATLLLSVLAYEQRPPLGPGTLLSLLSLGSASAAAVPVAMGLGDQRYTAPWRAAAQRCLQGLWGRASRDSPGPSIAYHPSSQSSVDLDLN
# Experiment: Cell-based TGR5 assay (cAMP generation, HTRF)
# Details: HEK293 cells stably transfected with human TGR5; cAMP by HTRF; 30 minutes at 37° C.; read-out: pEC50 Human TGR5 (converted)
# Method in brief: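 First, compounds in 3-fold serial dilution were placed in HBSS with 10 mM HEPES pH 7.4 and 0.5 mM IBMX. Next, human TGR5-expressing HEK293 cells were added and incubated 30 min at 37° C. Finally, cAMP was detected by HTRF and pEC50 derived by logistic fitting.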
row,EC50 [µM],Structure (SMILES)
1,< 0.1,"O=C(NCCCCCSc1ccc(Cl)c(CNC2(c3cnccc3-c3ccccc3OC3CC3)CC2)c1)NC[C@H](O)[C@@H](O)[C@H](O)[C@H](O)CO [Compound I-494, 1-[5-([4-Chloro-3-[([1-[4-(2-cyclopropoxyphenyl)pyridin-3-yl]cyclopropyl]amino)methyl]phenyl]sulfanyl)pentyl]-3-[(2S,3R,4R,5R)-2,3,4,5,6-pentahydroxyhexyl]urea]"
2,0.126 to 1,"Cc1ccc(SCCCCC(=O)N(C)C[C@H](O)[C@@H](O)[C@H](O)[C@H](O)CO)nc1CNC1(c2cnccc2-c2ccccc2OC2CC2)CC1 [Compound I-495, 5-([6-[([1-[4-(2-Cyclopropoxyphenyl)pyridin-3-yl]cyclopropyl]amino)methyl]-5-methylpyridin-2-yl]sulfanyl)-N-methyl-N-[(2S,3R,4R,5R)-2,3,4,5,6-pentahydroxyhexyl]pentanamide]"
3,< 0.1,"CSc1ncc(C)c(CNC2(c3cnccc3-c3ccccc3OC3CC3)CC2)n1 [Compound I-496, 1-[4-(2-Cyclopropoxyphenyl)pyridin-3-yl]-N-[[5-methyl-2-(methylsulfanyl)pyrimidin-4-yl]methyl]cyclopropan-1-amine]"
4,0.126 to 1,"CCc1ccc(SCCCC(=O)NC[C@H](O)[C@@H](O)[C@H](O)[C@H](O)CO)cc1COC1(c2cnccc2-c2ccccc2OC2CC2)CC1 [Compound I-497, 4-[[3-([l-[4-(2-Cyclopropoxyphenyl)pyridin-3-yl]cyclopropoxy]methyl)-4-ethylphenyl]sulfanyl]-N-[(2S,3R,4R,5R)-2,3,4,5,6-pentahydroxyhexyl]butanamide]"
5,< 0.1,"O=C(CCCSc1ccc(Cl)c(COC2(c3cnccc3-c3ccccc3OC3CC3)CC2)c1)NC[C@H](O)[C@@H](O)[C@H](O)[C@H](O)CO [Compound I-498, 4-[[4-Chloro-3-([1-[4-(2-cyclopropoxyphenyl)pyridin-3-yl]cyclopropoxy]methyl)phenyl]sulfanyl]-N-[(2S,3R,4R,5R)-2,3,4,5,6-pentahydroxyhexyl]butanamide]"
6,< 0.1,"CC(=O)N(CCCCCSc1ccc(Cl)c(CNC2(c3cnccc3-c3ccccc3OC3CC3)CC2)c1)C[C@H](O)[C@@H](O)[C@H](O)[C@H](O)CO [Compound I-499, N-[5-({4-chloro-3-[({1-[4-(2-cyclopropoxyphenyl)pyridin-3-yl]cyclopropyl}amino)methyl]phenyl}sulfanyl)pentyl]-N-[(2S,3R,4R,5R)-2,3,4,5,6-pentahydroxyhexyl]acetamide]"
7,< 0.1,"CC(=O)N(CCCSc1ccc(Cl)c(COC2(c3cnccc3-c3ccccc3OC3CC3)CC2)c1)C[C@H](O)[C@@H](O)[C@H](O)[C@H](O)CO [Compound I-500, N-(3-{[4-chloro-3-({1-[4-(2-cyclopropoxyphenyl)pyridin-3-yl]cyclopropoxy}methyl)phenyl]sulfanyl}propyl)-N-[(2S,3R,4R,5R)-2,3,4,5,6-pentahydroxyhexyl]acetamide]"
8,< 0.1,"CC(=O)N(CCCCSc1ccc(Cl)c(COC2(c3cnccc3-c3ccccc3OC3CC3)CC2)c1)C[C@H](O)[C@@H](O)[C@H](O)[C@H](O)CO [Compound I-501, N-(4-{[4-chloro-3-({1-[4-(2-cyclopropoxyphenyl)pyridin-3-yl]cyclopropoxy}methyl)phenyl]sulfanyl}butyl)-N-[(2S,3R,4R,5R)-2,3,4,5,6-pentahydroxyhexyl]acetamide]"
9,< 0.1,"CC(=O)N(CCCSc1ccc(Cl)c(CNC2(c3cnccc3-c3ccccc3OC3CC3)CC2)c1)C[C@H](O)[C@@H](O)[C@H](O)[C@H](O)CO [Compound I-502, N-[3-({4-chloro-3-[({1-[4-(2-cyclopropoxyphenyl)pyridin-3-yl]cyclopropyl}amino)methyl]phenyl}sulfanyl)propyl]-N-[(2S,3R,4R,5R)-2,3,4,5,6-pentahydroxyhexyl]acetamide]"
